{"source": "patent US8952024B2", "about": "“Herbicidal pyrimidone derivatives” (E I du Pont de Nemours and Company, priority 2009, dated 2015)", "format_in_all_cases": "in vivo", "key": {"[1]": {"tested_on": "morningglory (Ipomoea coccinea)", "assay": "Test B pre-/postemergence plant response", "conditions": "for Plant response rating, Morningglory: Postemergence", "summary_of_the_method": "(§1)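 Visual ratings on a 0–100 scale (100 = complete control) were made versus untreated controls 13–15 days after treatment in a greenhouse. Compounds in surfactant-containing non-phytotoxic solvent were applied preemergence to seeds in loam–sand blend or postemergence to 1- to 4-leaf plants (2–18 cm).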"}, "[2]": {"tested_on": "bermudagrass (Cynodon dactylon)", "assay": "Test B pre-/postemergence plant response", "conditions": "for Bermudagrass plant response rating (0 to 100 scale): 62 g ai/ha, postemergence, 0 is no effect, 100 is complete control; for Plant response rating, Bermudagrass: Postemergence", "summary_of_the_method": "as §1"}, "[3]": {"tested_on": "ducksalad (Heteranthera limosa)", "assay": "Test B flooded paddy test", "conditions": "for Plant response rating, Flood, Ducksalad: 250 g ai/ha, flooded paddy test, visual rating on 0 to 100 scale (0 no effect, 100 complete control) after 13 to 15 days; for Plant response rating, Ducksalad: Flood (flooded paddy test), 13 to 15 days", "summary_of_the_method": "(§2)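 Ratings are visual, 0–100 (100 = complete control), taken versus untreated controls 13 to 15 days after treatment in the greenhouse. Compound went straight into paddy water held 3 cm above soil, applied to 2-leaf-stage plants of four species.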"}, "rice (Oryza sativa)": {"tested_on": "rice (Oryza sativa)", "assay": "Test B flooded paddy test", "conditions": "for Plant response rating, Flood, Rice: 250 g ai/ha, flooded paddy test, visual rating on 0 to 100 scale (0 no effect, 100 complete control) after 13 to 15 days; for Plant response rating, Rice: Flood (flooded paddy test), 13 to 15 days", "summary_of_the_method": "as §2"}, "[4]": {"tested_on": "barnyardgrass (Echinochloa crus-galli)", "assay": "Test B flooded paddy test", "conditions": "for Plant response rating, Flood, Barnyardgrass: 250 g ai/ha, flooded paddy test, visual rating on 0 to 100 scale (0 no effect, 100 complete control) after 13 to 15 days; for Plant response rating, Barnyardgrass: Flood (flooded paddy test), 13 to 15 days", "summary_of_the_method": "as §2"}, "[5]": {"tested_on": "umbrella sedge (Cyperus difformis)", "assay": "Test B flooded paddy test", "conditions": "for Plant response rating, Flood, Sedge, Umbrella: 250 g ai/ha, flooded paddy test, visual rating on 0 to 100 scale (0 no effect, 100 complete control) after 13 to 15 days; for Plant response rating, Sedge, Umbrella: Flood (flooded paddy test), 13 to 15 days", "summary_of_the_method": "as §2"}, "[6]": {"tested_on": "windgrass (Apera spica-venti)", "assay": "Test B postemergence plant response", "conditions": "for Plant response rating, Windgrass: Postemergence", "summary_of_the_method": "(§3)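 Plants at the 1- to 4-leaf stage (2 to 18 cm tall), grown in pots of peat moss/vermiculite medium with wetting agent and starter nutrients, received postemergence applications of test chemicals. After 13 to 15 days in a greenhouse, injury was rated visually against untreated controls on a 0 (no effect) to 100 (complete control) scale.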"}, "[7]": {"tested_on": "winter barley (Hordeum vulgare)", "assay": "Test B postemergence plant response", "conditions": "for Barley plant response rating (0 to 100 scale): 62 g ai/ha, postemergence, 0 is no effect, 100 is complete control; for Plant response rating, Barley: Postemergence", "summary_of_the_method": "as §3"}, "[8]": {"tested_on": "canarygrass (Phalaris minor)", "assay": "Test B postemergence plant response", "conditions": "for Plant response rating, Canarygrass: Postemergence", "summary_of_the_method": "as §3"}, "[9]": {"tested_on": "chickweed (Stellaria media)", "assay": "Test B postemergence plant response", "conditions": "for Plant response rating, Chickweed: Postemergence", "summary_of_the_method": "as §3"}, "[10]": {"conditions": "31 g ai/ha, 0 to 100 scale (0 no effect, 100 complete control)"}, "[11]": {"conditions": "125 g ai/ha, scale 0 to 100 (0 no effect, 100 complete control)"}, "[12]": {"conditions": "250 g ai/ha, scale 0 to 100 (0 no effect, 100 complete control), 13 to 15 days"}, "[13]": {"conditions": "62 g ai/ha, scale of 0 to 100 where 0 is no effect and 100 is complete control"}, "[14]": {"conditions": "125 g ai/ha, scale 0 to 100, 0 is no effect, 100 is complete control"}, "[15]": {"conditions": "Flood, 31 g ai/ha, scale 0 to 100 (0 no effect, 100 complete control)"}, "[16]": {"conditions": "62 g ai/ha, postemergence, 0 is no effect, 100 is complete control, 13 to 15 days"}}, "data": [{"smiles": "Cc1ccc(-n2c(-c3cc(F)cc(F)c3)ncc(C(=O)C3=C(O)CCCC3=O)c2=O)cc1", "note": "[Compound 162]", "values": [{"measurement": "Plant response rating, Morningglory", "setting": "[1]; [10]", "result": 75}, {"measurement": "Plant response rating, Morningglory", "setting": "[1]; [11]", "result": 90}, {"measurement": "Plant response rating, Morningglory", "setting": "[1]; [12]", "result": 100}, {"measurement": "Bermudagrass plant response rating (0 to 100 scale)", "setting": "[2]; 13 to 15 days", "result": 95}, {"measurement": "Plant response rating, Bermudagrass", "setting": "[2]; [10]", "result": 85}, {"measurement": "Plant response rating, Bermudagrass", "setting": "[2]; [11]", "result": 100}, {"measurement": "Plant response rating, Bermudagrass", "setting": "[2]; [12]", "result": 100}, {"measurement": "Plant response rating, Flood, Ducksalad", "setting": "[3]", "result": 100}, {"measurement": "Plant response rating, Ducksalad", "setting": "[3]; [13]", "result": 100}, {"measurement": "Plant response rating, Ducksalad", "setting": "[3]; [14]", "result": 100}, {"measurement": "Ducksalad plant response rating", "setting": "[3]; [15]", "result": 98}, {"measurement": "Plant response rating, Flood, Rice", "setting": "rice (Oryza sativa)", "result": 90}, {"measurement": "Plant response rating, Rice", "setting": "rice (Oryza sativa); [13]", "result": 25}, {"measurement": "Plant response rating, Rice", "setting": "rice (Oryza sativa); [14]", "result": 90}, {"measurement": "Rice plant response rating", "setting": "rice (Oryza sativa); [15]", "result": 0}, {"measurement": "Plant response rating, Flood, Barnyardgrass", "setting": "[4]", "result": 55}, {"measurement": "Plant response rating, Barnyardgrass", "setting": "[4]; [13]", "result": 25}, {"measurement": "Plant response rating, Barnyardgrass", "setting": "[4]; [14]", "result": 40}, {"measurement": "Barnyardgrass plant response rating", "setting": "[4]; [15]", "result": 20}, {"measurement": "Plant response rating, Flood, Sedge, Umbrella", "setting": "[5]", "result": 100}, {"measurement": "Plant response rating, Sedge, Umbrella", "setting": "[5]; [13]", "result": 100}, {"measurement": "Plant response rating, Sedge, Umbrella", "setting": "[5]; [14]", "result": 100}, {"measurement": "Sedge, Umbrella plant response rating", "setting": "[5]; [15]", "result": 95}, {"measurement": "Plant response rating, Windgrass", "setting": "[6]; [10]", "result": 40}, {"measurement": "Plant response rating, Windgrass", "setting": "[6]; [11]", "result": 60}, {"measurement": "Plant response rating, Windgrass", "setting": "[6]; [12]", "result": 80}, {"measurement": "Barley plant response rating (0 to 100 scale)", "setting": "[7]; 13 to 15 days", "result": 35}, {"measurement": "Plant response rating, Barley", "setting": "[7]; [10]", "result": 30}, {"measurement": "Plant response rating, Barley", "setting": "[7]; [11]", "result": 50}, {"measurement": "Plant response rating, Barley", "setting": "[7]; [12]", "result": 85}, {"measurement": "Plant response rating, Canarygrass", "setting": "[8]; [10]", "result": 40}, {"measurement": "Plant response rating, Canarygrass", "setting": "[8]; [11]", "result": 90}, {"measurement": "Plant response rating, Canarygrass", "setting": "[8]; [12]", "result": 90}, {"measurement": "Plant response rating, Chickweed", "setting": "[9]; [10]", "result": 90}, {"measurement": "Plant response rating, Chickweed", "setting": "[9]; [11]", "result": 100}, {"measurement": "Plant response rating, Chickweed", "setting": "[9]; [12]", "result": 100}]}, {"smiles": "CCn1c(-c2cc(F)cc(F)c2)ncc(C(=O)C2=C(O)CCCC2=O)c1=O", "note": "[Compound 122]", "values": [{"measurement": "Plant response rating, Morningglory", "setting": "[1]; 16 g ai/ha, 0 to 100 scale", "result": 55}, {"measurement": "Morningglory plant response rating (0 to 100 scale)", "setting": "[1]; [16]", "result": 75}, {"measurement": "Plant response rating, Morningglory", "setting": "[1]; [10]", "result": 60}, {"measurement": "Plant response rating, Morningglory", "setting": "[1]; [11]", "result": 85}, {"measurement": "Plant response rating, Bermudagrass", "setting": "[2]; 16 g ai/ha, 0 to 100 scale", "result": 65}, {"measurement": "Bermudagrass plant response rating (0 to 100 scale)", "setting": "[2]; 13 to 15 days", "result": 80}, {"measurement": "Plant response rating, Bermudagrass", "setting": "[2]; [10]", "result": 75}, {"measurement": "Plant response rating, Bermudagrass", "setting": "[2]; [11]", "result": 85}, {"measurement": "Plant response rating, Flood, Ducksalad", "setting": "[3]", "result": 0}, {"measurement": "Plant response rating, Ducksalad", "setting": "[3]; [13]", "result": 0}, {"measurement": "Plant response rating, Flood, Rice", "setting": "rice (Oryza sativa)", "result": 15}, {"measurement": "Plant response rating, Rice", "setting": "rice (Oryza sativa); [13]", "result": 0}, {"measurement": "Plant response rating, Flood, Barnyardgrass", "setting": "[4]", "result": 40}, {"measurement": "Plant response rating, Barnyardgrass", "setting": "[4]; [13]", "result": 20}, {"measurement": "Plant response rating, Flood, Sedge, Umbrella", "setting": "[5]", "result": 45}, {"measurement": "Plant response rating, Sedge, Umbrella", "setting": "[5]; [13]", "result": 20}, {"measurement": "Plant response rating, Windgrass", "setting": "[6]; 16 g ai/ha, 0 to 100 scale", "result": 5}, {"measurement": "Windgrass plant response rating (0 to 100 scale)", "setting": "[6]; [16]", "result": 30}, {"measurement": "Plant response rating, Windgrass", "setting": "[6]; [10]", "result": 5}, {"measurement": "Plant response rating, Windgrass", "setting": "[6]; [11]", "result": 50}, {"measurement": "Plant response rating, Barley", "setting": "[7]; 16 g ai/ha, 0 to 100 scale", "result": 0}, {"measurement": "Barley plant response rating (0 to 100 scale)", "setting": "[7]; 13 to 15 days", "result": 10}, {"measurement": "Plant response rating, Barley", "setting": "[7]; [10]", "result": 0}, {"measurement": "Plant response rating, Barley", "setting": "[7]; [11]", "result": 50}, {"measurement": "Plant response rating, Canarygrass", "setting": "[8]; 16 g ai/ha, 0 to 100 scale", "result": 0}, {"measurement": "Canarygrass plant response rating (0 to 100 scale)", "setting": "[8]; [16]", "result": 35}, {"measurement": "Plant response rating, Canarygrass", "setting": "[8]; [10]", "result": 10}, {"measurement": "Plant response rating, Canarygrass", "setting": "[8]; [11]", "result": 45}, {"measurement": "Plant response rating, Chickweed", "setting": "[9]; 16 g ai/ha, 0 to 100 scale", "result": 65}, {"measurement": "Chickweed plant response rating (0 to 100 scale)", "setting": "[9]; [16]", "result": 70}, {"measurement": "Plant response rating, Chickweed", "setting": "[9]; [10]", "result": 70}, {"measurement": "Plant response rating, Chickweed", "setting": "[9]; [11]", "result": 80}]}]}
